Source: patent EP3755703B1, “N-(PHENYL)-2-(PHENYL)PYRIMIDINE-4-CARBOXAMIDE DERIVATIVES AND RELATED COMPOUNDS AS HPK1 INHIBITORS FOR TREATING CANCER” (Incyte Corporation, priority 2018, dated 2019)

target: T1, HPK1 (Homo sapiens, UniProt Q92918); test: HPK1 Kinase Binding Assay; conditions: LanthaScreen tracer 222, one hour incubation at 25 °C
T1 construct: purchased SignalChem M23-11G
T1 sequence (Q92918 1-346 limits assumed): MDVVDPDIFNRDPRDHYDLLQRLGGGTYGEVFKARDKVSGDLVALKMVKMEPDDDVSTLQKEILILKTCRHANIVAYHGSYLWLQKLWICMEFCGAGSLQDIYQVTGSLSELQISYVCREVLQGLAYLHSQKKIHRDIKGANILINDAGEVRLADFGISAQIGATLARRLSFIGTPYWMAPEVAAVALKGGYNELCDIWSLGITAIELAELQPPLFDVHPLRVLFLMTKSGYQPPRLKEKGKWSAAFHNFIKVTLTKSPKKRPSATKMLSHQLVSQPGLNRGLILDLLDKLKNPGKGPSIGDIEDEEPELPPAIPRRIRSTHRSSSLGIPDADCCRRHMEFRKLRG
Experimental: A stock solution of 1 mM test compound was prepared in DMSO. The compound plate was prepared by 3-fold and 11-point serial dilutions. 0.1 µL of the compound in DMSO was transferred from the compound plate to the white 384 well polystyrene plates. The assay buffer contained 50 mM HEPES, pH 7.5, 0.01% Tween-20, 5 mM MgCl2, 0.01% BSA, and 5 mM DTT. 5 µL of 4 nM active HPK1 (SignalChem M23-11G) prepared in the buffer was added to the plate. The enzyme concentration given was based on the given stock concentration reported by the vender. […] After one hour incubation at 25 °C, the plates were read on a PHERAstar FS plate reader (BMG Labtech). Ki values were determined.

COc1cccc(F)c1-c1nccc(C(=O)Nc2cc(F)ccc2N2CCC[C@@H]2CN)n1 [Example 3, (R)-N-(2-(2-(Aminomethyl)pyrrolidin-1-yl)-5-fluorophenyl)-2-(2-fluoro-6-methoxyphenyl)pyrimidine-4-carboxamide] and COc1cccc(F)c1-c1nccc(C(=O)Nc2cc(F)ccc2N2CCC[C@@H]2CO)n1 [Example 4, (R)-N-(5-Fluoro-2-(2-(hydroxymethyl)pyrrolidin-1-yl)phenyl)-2-(2-fluoro-6-methoxyphenyl)pyrimidine-4-carboxamide] cannot be ordered by Ki: < 100 nM for the first, < 100 nM for the second.

First: COC[C@H]1CCCN1c1ccc(F)cc1NC(=O)c1ccnc(-c2c(F)cccc2OC)n1 [Example 5, (R)-N-(5-Fluoro-2-(2-(methoxymethyl)pyrrolidin-1-yl)phenyl)-2-(2-fluoro-6-methoxyphenyl)pyrimidine-4-carboxamide]
Second: COc1cccc(F)c1-c1nccc(C(=O)Nc2cc(F)ccc2N2CCNC[C@H]2C)n1 [Example 10]
The Ki of the first is higher: 100 to 500 nM for the first, < 100 nM for the second.

COc1cccc(F)c1-c1nccc(C(=O)Nc2cc(F)ccc2N2C[C@@H](O)C[C@@H]2C)n1 [Example 7, N-(5-Fluoro-2-((2S,4S)-4-hydroxy-2-methylpyrrolidin-1-yl)phenyl)-2-(2-fluoro-6-methoxyphenyl)pyrimidine-4-carboxamide] and COc1cccc(F)c1-c1nccc(C(=O)Nc2cc(F)ccc2N2CCNC[C@@H]2CO)n1 [Example 11, (R)-N-(5-Fluoro-2-(2-(hydroxymethyl)piperazin-1-yl)phenyl)-2-(2-fluoro-6-methoxyphenyl)pyrimidine-4-carboxamide] cannot be ordered by Ki: < 100 nM for the first, < 100 nM for the second.

COc1cccc(F)c1-c1nccc(C(=O)Nc2cc(F)ccc2N2CCCC2c2ccccn2)n1 (stereo not shown) [Example 8, N-(5-Fluoro-2-(2-(pytidin-2-yl)pyrrolidin-1-yl)phenyl)-2-(2-fluoro-6-methoxyphenyl)pyrimidine-4-carboxamide] and COc1cccc(F)c1-c1nccc(C(=O)Nc2cc(F)ccc2N2CCC3CNCC32)n1 (stereo not shown) [Example 9, N-(5-Fluoro-2-(hexahydropyrrolo[3,4-b]pyrrol-1(2H)-yl)phenyl)-2-(2-fluoro-6-methoxyphenyl)pyrimidine-4-carboxamide] fall in the same range of Ki: 500 to 5000 nM for the first, 500 to 5000 nM for the second.

COc1cccc(F)c1-c1nccc(C(=O)Nc2cc(F)ccc2N2CCOCC2CO)n1 (stereo not shown) [Example 12, N-(5-Fluoro-2-(3-(hydroxymethyl)morpholino)phenyl)-2-(2-fluoro-6-methoxyphenyl)pyrimidine-4-carboxamide] and COc1cccc(F)c1-c1nccc(C(=O)Nc2cc(F)cc(Br)c2N2C[C@H]3C[C@@H]2CN3)n1 [Example 13, N-(2-((1R,4R)-2,5-Diazabicyclo[2.2.1]heptan-2-yl)-3-bromo-5-fluorophenyl)-2-(2-fluoro-6-methoxyphenyl)pyrimidine-4-carboxamide] cannot be ordered by Ki: < 100 nM for the first, < 100 nM for the second.

COc1cccc(F)c1-c1nccc(C(=O)Nc2cccc(C#N)c2N2C[C@H]3C[C@@H]2CN3)n1 [Example 14, N-(2-((1R,4R)-2,5-Diazabicyclo[2.2.1]heptan-2-yl)-3-cyanophenyl)-2-(2-fluoro-6-methoxyphenyl)pyrimidine-4-carboxamide] and COc1cccc(F)c1-c1nccc(C(=O)Nc2cc(F)cc(-c3cccnc3)c2N2C[C@H]3C[C@@H]2CN3)n1 [Example 15, N-(2-((1R,4R)-2,5-Diazabicyclo[2.2.1]heptan-2-yl)-5-fluoro-3-(pyridin-3-yl)phenyl)-2-(2-fluoro-6-methoxyphenyl)pyrimidine-4-carboxamide] cannot be ordered by Ki: < 100 nM for the first, < 100 nM for the second.

In the case of COc1cccc(F)c1-c1nccc(C(=O)Nc2cc(F)cc(-c3cnn(C)c3)c2N2C[C@H]3C[C@@H]2CN3)n1 [Example 16, N-(2-((1R,4R)-2,5-Diazabicyclo[2.2.1]heptan-2-yl)-5-fluoro-3-(1-methyl-1H pyrazol-4-yl)phenyl)-2-(2-fluoro-6-methoxyphenyl)pyrimidine-4-carboxamide], the Ki is reported as < 100 nM.
